Assay results: patent US20040234480A1, “Use of oligomeric proanthrocyanidins” (priority 2001, published 2004)

Key:
[1] = Method A: diphenylpicrylhydrazyl free radical, optical density at 513 nm; settings: DPPH radical
Description: Method A In a first method, use was made of diphenylpicrylhydrazyl (DPPH^o), a relatively stable free radical which produces a purple-colored solution. The parameter determined was the optical density (DO) at 513 nm. The results are summarized in Table 1; in each case the EC50 values are given in % (w/v).

Xanthin oxidase = Xanthin oxidase (Homo sapiens, UniProt P47989); experiment: Method D: Xanthin oxidase, superoxide anion by NBT reduction, optical density at 490 nm; assay type: biochemical
Chain of Xanthin oxidase (P47989 whole entry): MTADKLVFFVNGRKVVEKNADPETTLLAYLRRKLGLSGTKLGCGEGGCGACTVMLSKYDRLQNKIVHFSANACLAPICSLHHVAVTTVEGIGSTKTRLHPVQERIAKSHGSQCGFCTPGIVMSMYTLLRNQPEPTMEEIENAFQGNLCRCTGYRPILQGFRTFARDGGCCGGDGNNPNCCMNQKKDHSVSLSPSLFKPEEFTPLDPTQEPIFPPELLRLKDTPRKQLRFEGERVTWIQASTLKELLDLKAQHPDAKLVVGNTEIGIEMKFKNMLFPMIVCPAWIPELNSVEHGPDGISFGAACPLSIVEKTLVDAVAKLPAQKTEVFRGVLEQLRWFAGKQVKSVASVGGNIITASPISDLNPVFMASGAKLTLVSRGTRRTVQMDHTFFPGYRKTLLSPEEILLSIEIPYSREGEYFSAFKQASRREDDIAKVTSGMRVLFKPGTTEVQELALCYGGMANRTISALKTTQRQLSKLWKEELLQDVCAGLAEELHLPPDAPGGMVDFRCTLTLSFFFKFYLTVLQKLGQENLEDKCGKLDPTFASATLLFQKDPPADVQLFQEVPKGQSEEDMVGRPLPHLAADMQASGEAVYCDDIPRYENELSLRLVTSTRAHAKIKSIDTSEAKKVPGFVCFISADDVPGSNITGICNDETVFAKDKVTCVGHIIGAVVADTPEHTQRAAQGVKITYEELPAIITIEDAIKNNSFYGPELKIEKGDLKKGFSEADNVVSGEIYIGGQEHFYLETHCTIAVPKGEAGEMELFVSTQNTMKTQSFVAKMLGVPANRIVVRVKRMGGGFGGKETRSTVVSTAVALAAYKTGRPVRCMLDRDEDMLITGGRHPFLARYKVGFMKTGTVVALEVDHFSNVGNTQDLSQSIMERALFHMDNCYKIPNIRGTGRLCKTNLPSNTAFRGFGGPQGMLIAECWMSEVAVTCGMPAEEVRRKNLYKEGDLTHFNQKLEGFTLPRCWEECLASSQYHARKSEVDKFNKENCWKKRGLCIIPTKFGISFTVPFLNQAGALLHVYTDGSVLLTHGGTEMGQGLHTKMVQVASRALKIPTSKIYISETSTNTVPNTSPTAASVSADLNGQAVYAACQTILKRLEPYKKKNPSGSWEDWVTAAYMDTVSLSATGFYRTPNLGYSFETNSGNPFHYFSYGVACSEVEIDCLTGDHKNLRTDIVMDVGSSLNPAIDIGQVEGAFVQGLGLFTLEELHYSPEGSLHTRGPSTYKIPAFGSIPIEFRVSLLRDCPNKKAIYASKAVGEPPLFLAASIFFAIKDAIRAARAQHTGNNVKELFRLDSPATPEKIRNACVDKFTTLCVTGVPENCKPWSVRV
Description: Method D Xanthin oxidase is an enzyme which is released as a result of oxidative stress and catabolizes the degradation of the purine bases adenine and guanine into […] and superoxide anions. The latter dismutate spontaneously or in the presence of superoxide dismutase into hydrogen peroxide and oxygen.
The amount of superoxide anion can be determined by NBT reduction via the optical density at 490 nm. It was investigated whether fewer superoxide anions are generated or more anions are destroyed in the presence of the test substances.
(§1) The results are summarized in Table 1; in each case the EC50 values are given in % (w/v).

[2] = Method B: hydroxyl radicals from hydrogen peroxide with iron(II) ions and EDTA, deoxyribose oxidation
Description: Method B In the presence of iron(II)ions and EDTA, hydroxyl radicals were liberated from hydrogen peroxide and used for the oxidation of deoxyribose. The oxidation product forms a pink-colored compound with thiobarbituric acid. Its concentration corresponds to the optical density at 532 nm. It was investigated whether less deoxyribose is oxidized, i.e. fewer free radicals are liberated, in the presence of the test products. The results are summarized in Table 1; in each case the EC50 values are given in % (w/v).

[3] = Method C: deoxyribose oxidation in the absence of EDTA (inactive iron complexes)
Description: as §1

Row | EC50, test method D (Xanthin oxidase) | Compound | EC50, test method A [1] | EC50, test method B [2] | EC50, test method C [3] | EC50 (Xanthin oxidase; read-out: EC50, test method D (converted))
1 | no | Tocopherol | 0.0067 % (w/v) |  |  | 
2 |  | O=C1O[C@H]([C@@H](O)CO)C(O)=C1O [Ascorbic acid] | 0.0013 % (w/v) | 0.2607% (w/v) | 0.9% (w/v) | 33.6 mM
